Results published in ChEMBL document CHEMBL1201862, “PubChem BioAssay data set” (2004).
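Values below derive from 48-hour exposures of cells grown in 96-well plates, with endpoints linearly interpolated between the two concentrations bracketing the appropriate inhibition level. GI50: concentration for 50% inhibition of growth.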 Active and inactive are the calls of the source. Cut-off read from the data, not from the text of the source: active = GI50 up to about 1.1 µM and inactive = higher.

Legend:
Assay in all cases: NCI anticancer screen, dose series, 48 h
MCF7 = tested on: MCF7
SF-295 = tested on: SF-295
NCI/ADR-RES = tested on: NCI/ADR-RES
ACHN = tested on: ACHN
PC-3 = tested on: PC-3
OVCAR-8 = tested on: OVCAR-8
MOLT-4 = tested on: MOLT-4
MDA-MB-435 = tested on: MDA-MB-435
SK-MEL-2 = tested on: SK-MEL-2
SF-539 = tested on: SF-539
786-0 = tested on: 786-0
A549 = tested on: A549
IGROV-1 = tested on: IGROV-1
UO-31 = tested on: UO-31
SW-620 = tested on: SW-620
MDA-MB-231 = tested on: MDA-MB-231
CCRF-CEM = tested on: CCRF-CEM
HOP-62 = tested on: HOP-62
HCT-116 = tested on: HCT-116
T47D = tested on: T47D

| SMILES | GI50 (MCF7) | GI50 (SF-295) | GI50 (NCI/ADR-RES) | GI50 (ACHN) | GI50 (PC-3) | GI50 (OVCAR-8) | GI50 (MOLT-4) | GI50 (MDA-MB-435) | GI50 (SK-MEL-2) | GI50 (SF-539) | GI50 (786-0) | GI50 (A549) | GI50 (IGROV-1) | GI50 (UO-31) | GI50 (SW-620) | GI50 (MDA-MB-231) | GI50 (CCRF-CEM) | GI50 (HOP-62) | GI50 (HCT-116) | GI50 (T47D) |
| --- | --- | --- | --- | --- | --- | --- | --- | --- | --- | --- | --- | --- | --- | --- | --- | --- | --- | --- | --- | --- |
| CN(/N=C/c1cccc2cccnc12)c1ccc(Cl)cc1[N+](=O)[O-] | 31.6 µM (inactive) | > 100 µM (inactive) | 87.1 µM (inactive) | > 100 µM (inactive) | > 100 µM (inactive) | > 100 µM (inactive) | 76.7 µM (inactive) | > 100 µM (inactive) | > 100 µM (inactive) | > 100 µM (inactive) | > 100 µM (inactive) | > 100 µM (inactive) | > 100 µM (inactive) | > 100 µM (inactive) | > 100 µM (inactive) | > 100 µM (inactive) | > 100 µM (inactive) | > 100 µM (inactive) | > 100 µM (inactive) |  |
| O=C(/C=C/c1ccc2c(c1)OCO2)c1ccc(O)cc1 | 11.1 µM (inactive) | 17.5 µM (inactive) | 1.76 µM (inactive) | 20.2 µM (inactive) | 15 µM (inactive) | 1.64 µM (inactive) |  | 14.8 µM (inactive) | 16.9 µM (inactive) | 17.4 µM (inactive) | 1.63 µM (inactive) | 17.4 µM (inactive) | 15.1 µM (inactive) | 13.4 µM (inactive) | 12.1 µM (inactive) | 17.4 µM (inactive) | 8.07 µM (inactive) | 26.8 µM (inactive) | 13.4 µM (inactive) |  |
| CCOC(=O)C(O)(CC1=NC(C(=O)OC)(C(=O)OC)C(c2cccc(C=O)c2)O1)C(=O)OCC (centres undefined) | > 100 µM (inactive) |  | > 100 µM (inactive) | > 100 µM (inactive) | > 100 µM (inactive) | > 100 µM (inactive) | > 100 µM (inactive) | > 100 µM (inactive) | > 100 µM (inactive) |  | > 100 µM (inactive) | > 100 µM (inactive) | > 100 µM (inactive) | > 100 µM (inactive) | > 100 µM (inactive) |  | > 100 µM (inactive) | > 100 µM (inactive) | > 100 µM (inactive) | > 100 µM (inactive) |
| CC(C)[Si](Oc1ccc(CC2N(C(=O)c3ccc([N+](=O)[O-])cc3)C(CCc3ccccc3)CC2(C)C=O)cc1)(C(C)C)C(C)C (centres undefined) |  | 7.05 µM (inactive) |  | > 100 µM (inactive) | > 100 µM (inactive) | 13.6 µM (inactive) |  |  | 86.7 µM (inactive) | 6.22 µM (inactive) | 17.2 µM (inactive) |  | 7.38 µM (inactive) | > 100 µM (inactive) |  | 12.9 µM (inactive) | > 100 µM (inactive) | 7.57 µM (inactive) |  | > 100 µM (inactive) |
| COc1cc([C@@H]2c3cc4c(cc3C[C@@H]3COC(=O)C32)OCO4)cc(OC)c1O (some centres undefined) | 0.017 µM (active) | 0.0208 µM (active) | 0.0187 µM (active) | 0.03 µM (active) | 0.0234 µM (active) |  | 0.0271 µM (active) | < 0.01 µM (active) |  | 0.0188 µM (active) | 0.0299 µM (active) | 0.0668 µM (active) | 0.0254 µM (active) | 0.0562 µM (active) | 0.0306 µM (active) |  | 0.0228 µM (active) | 0.03 µM (active) | 0.0297 µM (active) |  |
| COc1ccc(/N=C2\S/C(=N\C(=N\c3ccccc3)SCc3ccccc3)N(c3ccccc3)\C2=N/c2ccc(OC)cc2)cc1 | > 100 µM (inactive) |  |  |  | > 100 µM (inactive) | > 100 µM (inactive) | > 100 µM (inactive) |  | > 100 µM (inactive) |  | > 100 µM (inactive) | > 100 µM (inactive) | > 100 µM (inactive) | > 100 µM (inactive) | > 100 µM (inactive) | > 100 µM (inactive) | > 100 µM (inactive) | > 100 µM (inactive) | > 100 µM (inactive) | > 100 µM (inactive) |
| COC(=O)Cc1cccc2c(=O)c(S(=O)(=O)NC(=O)Nc3ccc(Cl)cc3)c(-c3ccccc3)oc12 | 47.8 µM (inactive) | 67.9 µM (inactive) | > 100 µM (inactive) | 12.2 µM (inactive) | 16.3 µM (inactive) | 69.3 µM (inactive) | 17.1 µM (inactive) | 11.3 µM (inactive) |  | 58.5 µM (inactive) | > 100 µM (inactive) | 69.2 µM (inactive) | 38.5 µM (inactive) | 25.8 µM (inactive) | 13.9 µM (inactive) | 29.2 µM (inactive) | 15.9 µM (inactive) | > 100 µM (inactive) | 33.3 µM (inactive) |  |
| CC(C)(CNC(=O)/C(Cl)=C(/Cl)C(=O)O)CNC(=O)/C(Cl)=C(/Cl)C(=O)O | 59.6 µM (inactive) | > 100 µM (inactive) | > 100 µM (inactive) | 28.4 µM (inactive) | > 100 µM (inactive) | > 100 µM (inactive) | 30.9 µM (inactive) | > 100 µM (inactive) | > 100 µM (inactive) | 67.6 µM (inactive) | > 100 µM (inactive) | > 100 µM (inactive) | > 100 µM (inactive) | > 100 µM (inactive) | 40.6 µM (inactive) |  | 39.3 µM (inactive) | > 100 µM (inactive) | 36.2 µM (inactive) | 92.7 µM (inactive) |
| COc1ccc(NCC(=O)Nn2c(C)nc3ccc(S(=O)(=O)Nc4ccc(OC)cc4)cc3c2=O)cc1 | > 100 µM (inactive) | > 100 µM (inactive) | > 100 µM (inactive) | > 100 µM (inactive) | > 100 µM (inactive) | > 100 µM (inactive) | > 100 µM (inactive) | > 100 µM (inactive) | > 100 µM (inactive) | > 100 µM (inactive) | > 100 µM (inactive) | > 100 µM (inactive) | 69.7 µM (inactive) | > 100 µM (inactive) | > 100 µM (inactive) | > 100 µM (inactive) | > 100 µM (inactive) | > 100 µM (inactive) | > 100 µM (inactive) |  |
| CN(C(=O)C1CCCCCC1=O)c1ccccc1Cl (centres undefined) |  | > 100 µM (inactive) | > 100 µM (inactive) | > 100 µM (inactive) |  | > 100 µM (inactive) | > 100 µM (inactive) | > 100 µM (inactive) |  | > 100 µM (inactive) | > 100 µM (inactive) | > 100 µM (inactive) | > 100 µM (inactive) | > 100 µM (inactive) | > 100 µM (inactive) | > 100 µM (inactive) |  | > 100 µM (inactive) | > 100 µM (inactive) | > 100 µM (inactive) |
| Cc1ccc(C)n1-c1ccccc1C1C=Cn2c(=O)oc3c(OC(C)C)c(OC(C)C)c(O)c1c32 (centres undefined) | 16.6 µM (inactive) | 33.3 µM (inactive) | 27.4 µM (inactive) | 33.3 µM (inactive) | 5.11 µM (inactive) | 49.1 µM (inactive) | 6.84 µM (inactive) | 6.1 µM (inactive) | 7.33 µM (inactive) | > 100 µM (inactive) | 37.3 µM (inactive) | 16.5 µM (inactive) | 54 µM (inactive) | 12.7 µM (inactive) | 11.4 µM (inactive) | 5.13 µM (inactive) | 18 µM (inactive) | 73.5 µM (inactive) | 8.26 µM (inactive) |  |
| COc1c(-c2nc3ccc(N4CCN(C)CC4)nc3[nH]2)cc(OC)c2c1nc(CO)n2C |  | > 100 µM (inactive) | > 100 µM (inactive) | > 100 µM (inactive) | > 100 µM (inactive) | > 100 µM (inactive) | > 100 µM (inactive) | > 100 µM (inactive) | > 100 µM (inactive) | 53.3 µM (inactive) | > 100 µM (inactive) | > 100 µM (inactive) | > 100 µM (inactive) | > 100 µM (inactive) | > 100 µM (inactive) | > 100 µM (inactive) | > 100 µM (inactive) | > 100 µM (inactive) | > 100 µM (inactive) | > 100 µM (inactive) |
| CC1OC(=O)c2ccccc2NC1=O (centres undefined) |  | > 100 µM (inactive) | > 100 µM (inactive) | > 100 µM (inactive) | > 100 µM (inactive) | > 100 µM (inactive) | > 100 µM (inactive) | > 100 µM (inactive) | > 100 µM (inactive) | > 100 µM (inactive) | > 100 µM (inactive) | > 100 µM (inactive) | > 100 µM (inactive) | > 100 µM (inactive) | > 100 µM (inactive) | > 100 µM (inactive) | > 100 µM (inactive) | > 100 µM (inactive) | > 100 µM (inactive) |  |
| COc1ccc2c(c1)[n+]([O-])c(C(=O)CC(=O)C(=O)Nc1cccc(Cl)c1C)c(C)[n+]2[O-] |  | > 100 µM (inactive) |  | > 100 µM (inactive) |  | > 100 µM (inactive) | 49.4 µM (inactive) |  | > 100 µM (inactive) | > 100 µM (inactive) | > 100 µM (inactive) | > 100 µM (inactive) | > 100 µM (inactive) | > 100 µM (inactive) | 68.9 µM (inactive) |  | 21.7 µM (inactive) | > 100 µM (inactive) | > 100 µM (inactive) |  |
| Nc1ccc(Oc2ccc(C3(c4ccc(Oc5ccc(N)cc5)cc4)C4CC5CC(C4)CC3C5)cc2)cc1 | 3.55 µM (inactive) | 6.76 µM (inactive) | 15.8 µM (inactive) | 7.8 µM (inactive) | 5.7 µM (inactive) | 9.18 µM (inactive) | 4.27 µM (inactive) | 8.05 µM (inactive) | 23 µM (inactive) | 10.9 µM (inactive) | 4.57 µM (inactive) | 6.08 µM (inactive) | 12.8 µM (inactive) | 3.01 µM (inactive) | 4.26 µM (inactive) | 17 µM (inactive) | 3.03 µM (inactive) | 11.8 µM (inactive) | 0.782 µM (active) |  |
